Experimental data reported in US11963972B2, “Antiviral agents and nucleoside analogs for treatment of Zika virus” (priority 2016, dated 2024).

What was measured:
[1] = tested on: ZIKV Puerto Rico strain (PRVABC59); experiment: ZIKV CPE MTS assay in human neuroblastoma (U251) cells; format: cell-based, Zika virus; details: Zika virus; for IC50: U-251, 120 h, read-out: ZIKV CPE MTS Assay IC50 (μM) H251
Description: (§1) […] Cell cytopathic effect (CPE) MTS assay (CellTiter 96@k) AQueous One Solution Cell Proliferation Promega kit, Promega) was measured four (Vero) or five (U251 or Huh7) days after compound addition to determine the levels of replication inhibition.

[2] = tested on: ZIKV Puerto Rico strain (PRVABC59); experiment: ZIKV CPE MTS assay in Vero cells; format: cell-based, Zika virus; details: Zika virus; for IC50: 96 h, read-out: ZIKV CPE MTS Assay IC50 (μM) Vero; for inhibition at 20 µM / inhibition at 10 µM: read-out: ZIKV CPE MTS Assay percentage of inhibition at the concentration, Vero
Description: as §1

[3] = tested on: ZIKV Puerto Rico strain (PRVABC59); experiment: ZIKV CPE MTS assay in Huh7 cells; format: cell-based, Zika virus; details: Zika virus, Huh-7, 120 h, read-out: ZIKV CPE MTS Assay IC50 (μM) Huh7
Description: as §1

[4] = Cytotoxicity MTT assay in CEM cells; format: cell-based; details: human
Description: (§2) The toxicity of the compounds can be assessed in Vero, human PBM, CEM (human lymphoblastoid), and can be assessed in MT-2, and HepG2 cells, as described previously (see Schinazi R. F., Sommadossi J.-P., Saalmann V., Cannon D. L., Xie M.-Y., Hart G. C., Smith G. A. & Hahn E. F. Antimicrob. Agents Chemother. 1990, 34, 1061-67). Cycloheximide can be included as positive cytotoxic control, and untreated cells exposed to solvent can be included as negative controls. The cytotoxicity (IC50) can be obtained from the concentration-response curve using the median effective method described previously (see Chou T.-C. & Talalay P. Adv. Enzyme Regul. 1984, 22, 27-55; Belen'kii M. S. & Schinazi R. F. Antiviral Res. 1994, 25, 1-11).

[5] = Cytotoxicity MTT assay in Vero cells; format: cell-based; details: African green monkey
Description: as §2

[6] = Cytotoxicity MTT assay in PBM cells; format: cell-based; details: human
Description: v) Cellular Toxicity Assays: Nucleoside and nucleoside monophosphate prodrugs can be evaluated for their potential toxic effects on P4/R5 cells, MT-2 cells and uninfected PHA-stimulated human PBM cell. Log-phase P4/R5, MT-2, and PHA-stimulated human PBM cells can be seeded at 5×10^3 to 5×10^4 cells/well in 96-well cell culture plates containing 10-fold serial dilutions of the test drug. The cultures can be incubated for 2-4 days, after which 3-(4,5-dimethylthiazol-2-yl)-2,5-diphenyltetrazolium bromide (MTT) dye solution (Promega, Madison, WI) can be added to each well and incubated overnight. The reaction can be stopped with stop solubilization solution (Promega, Madison, WI) and plates can be read at a wavelength of 570 nm. The median 50% cytotoxic concentration (CC50) can be determined from the concentration-response curve using the median effect method.
as §2

[7] = Cytotoxicity MTT assay in Huh7 cells; format: cell-based; details: human
[8] = Vero cells, MOI=0.01, four days
[9] = U-251, read-out: ZIKV CPE MTS Assay percentage of inhibition at the concentration, H251

SMILES	IC50 ([1]; H251 cells, MOI=0.5, five days) [µM]	inhibition at 20 µM ([1]; U-251, H251 cells, at 20 μM, read-out: ZIKV CPE MTS Assay percentage of inhibition at the concentration, H251) [%]	IC50 [2, 8] [µM]	IC50 ([3]; Huh7 cells, MOI=0.5, five days) [µM]	inhibition at 10 µM ([1]; U-251, H251 cells, at 10 μM, read-out: ZIKV CPE MTS Assay percentage of inhibition at the concentration, H251) [%]	IC50 ([4]; CEM lymphoblastoid cells) [µM]	IC50 [5] [µM]	IC50 ([6]; PHA-stimulated human PBM cells) [µM]	IC50 [1] [µM]	inhibition at 20 µM [1, 9] [%]	IC50 [4] [µM]	IC50 ([6]; PBM cells) [µM]	IC50 [7] [µM]	IC50 ([2]; Vero) [µM]	inhibition at 20 µM ([2]; Vero) [%]	IC50 [3] [µM]	inhibition at 10 µM [1, 9] [%]	inhibition at 10 µM ([2]; Vero) [%]
C[C@@]1(O)C(O)[C@@H](CO)O[C@H]1n1cnc2c(N)ncnc21 (stereo partly shown)	> 20	24	20	3.4														
C[C@@]1(O)C(n2cnc3c(N)ncnc32)O[C@H](CO)[C@@H]1O (stereo partly shown)	> 10		13.1	1.7	37	> 100	> 100	> 100										
CCOC(=O)[C@H](C)NP(=O)(OCC1C(n2cnc3c(N)cc(N)nc32)C[C@](C)(O)[C@@H]1O)Oc1ccccc1 (stereo partly shown)							> 100		> 20	42	> 100	> 100	> 100	> 20	1	2.9		
CCOC(=O)[C@@H](C)NP(=O)(OC[C@H]1O[C@@H](n2ccc(NO)nc2=O)C(C)(O)C1O)Oc1ccccc1 (stereo partly shown)							> 100		> 20	27	> 100	> 100	> 100	> 20	1	5		
CCOC(=O)[C@H](C)NP(=O)(OCC1O[C@@H](n2cnc3c(NOC)nc(N)nc32)[C@](C)(O)[C@@H]1O)Oc1ccccc1 (stereo partly shown)							> 100		> 20	43	28	> 100	94	> 20	19	4.7		
CC(C)OC(=O)[C@H](C)NP(=O)(OC[C@H]1O[C@@H](n2ccc(NO)nc2=O)C(C)(O)C1O)Oc1ccccc1 (stereo partly shown)							> 100		> 20	3	> 100	> 100	> 100	> 20	1	0.8		
CC(C)OC(=O)[C@H](C)NP(=O)(OCC1O[C@@H](n2cnc3c(N=[N+]=[N-])nc(N)nc32)[C@](C)(O)[C@@H]1O)Oc1ccccc1 (stereo partly shown)							> 100		> 20	20	> 100	> 100	> 100	> 20	1	11.5		
CC(C)OC(=O)[C@H](C)NP(=O)(OCC1O[C@@H](n2cnc3c(N)nc(N)nc32)[C@](C)(O)[C@@H]1O)Oc1ccccc1 (stereo partly shown)							> 100		> 20	25	> 100	> 100	> 100	> 20	1	3.7		
CC(C)OC(=O)[C@H](C)NP(=O)(OC[C@H]1O[C@@H](n2cc(F)c3c(N)ncnc32)[C@](C)(O)C1O)Oc1ccccc1 (stereo partly shown)							> 100		> 10		92.1	34.7		> 20		7.6	1	
CC(C)OC(=O)[C@H](C)N[P@](=O)(OC[C@H]1O[C@@H](n2ccc(=O)[nH]c2=O)[C@](C)(F)[C@@H]1O)Oc1ccccc1							> 100		> 20	17	> 100	> 100	49.3	> 20	1	5.7		
CC(C)OC(=O)[C@H](C)NP(=O)(OC[C@H]1O[C@@H](n2ccc(=O)[nH]c2=O)[C@@](F)(Cl)C1O)Oc1ccccc1 (stereo partly shown)							> 100				> 100	> 100		< 10				76
CC(C)OC(=O)[C@H](C)NP(=O)(OC[C@H]1O[C@@H](n2ccc(N)nc2=O)C(F)(Cl)C1O)Oc1ccccc1 (stereo partly shown)							> 100				> 100	> 100		< 10				80
O=c1nc(NO)ccn1[C@@H]1O[C@H](CO)C(O)C1O (stereo partly shown) [drawing 107]	4.3		3.2	5.1		2.5	7.7	30.6										
